Test results as given in patent US20110251220A1, “Pharmaceutical compositions comprising gamma secretase modulators” (priority 2008, published 2011).

Legend:
Assay type in all cases: cell-based, human
[1] = tested on: OPM-2 cocultured with OCL; assay: OPM-2/OCL coculture, apoptosis of OPM-2 by AnnexinV-FITC/PI staining; conditions: 60 μM GSI15, 48 h
Protocol: (§1) Human MM cell lines used were as follows: NCI-H929, OPM-2, LP-1, RPMI-8226, U266 (DSMZ, Braunschweig, Germany). Cell lines were cultured in RPMI 1640 medium (Biochrom, Berlin, Germany) supplemented with 10% heat-inactivated fetal calf serum (FCS, Gibco, Karlsruhe, Germany), 1 mM sodium pyruvate and 100 units/ml penicillin and 100 μg/ml streptomycin (Gibco). Human osteoclasts were obtained as described in the reference of Zavrski I, Krebbel H, Wildemann B, et al. Proteasome inhibitors abrogate osteoclast differentiation and osteoclast function. Biochem Biophys Res Commun. 2005; 333:200-205. Briefly, peripheral blood mononuclear cells (PBMC) were isolated from whole blood of healthy volunteers, using a Ficoll-Hypaque density gradient. […]
For cell cycle analysis 2×10^5 cells were spun down, medium was aspirated and cells washed with PBS. […] After 10 minutes incubation in the dark at room temperature, cells were analyzed by flow cytometry. The amount of apoptotic cells was determined by AnnexinV/propidium iodide staining using Human AnnexinV-FITC Kit (Bender Medsystems, Vienna, Austria), according to manufacturer's protocol. […] Cells were then spun down again, resuspended in binding buffer containing PI and analyzed by flow cytometry.

Hes-1 = Hes-1 mRNA expression in OCL (quantitative RT-PCR); conditions: mono- and coculture with OPM-2
Protocol: In osteoclast coculture experiments, OPM-2 cells (1×10^6 cells) were added to osteoclasts in 60 mm dishes (4×10^6 cells per dish) in 3 ml MEM medium supplemented with 10% FCS, 100 U/ml penicillin, 100 μg/ml streptomycin. GSI15 (30 μM, 60 μM) or DMSO (equivalent to 60 μM) as solvent control were added to each well (daily treatment). After 48 h, 0.5 ml OPM-2 cell suspension were harvested per well and subjected to AnnexinV-FITC/PI staining. Remaining OPM-2 cells were harvested and lysed for either RNA or protein preparation. The monolayer of osteoclasts was washed twice with ice-cold PBS and then lysed for either RNA or protein preparation directly on the plate.
Quantitative real-time reverse transcription-PCR (RT-PCR) analysis was performed using the following primer/probe sets: human Hes-1 (forward—[…], reverse—[…], probe—FAM-[…]-TAMRA) human TRAP5 (forward—[…], reverse—[…], probe FAM-[…]-TAMRA), human beta2-microglobulin (forward—ccc cca ctg aaa aag atg ag, reverse—atc caa tcc aaa tgc ggc, probe—FAM-CCTGCCGTGTGAACCATGTGACTTT-TAMRA) served as normalizer. […] For the RT-PCR reaction SuperScript™ III Platinum® One-Step Quantitative RT-PCR System (Invitrogen, Karlsruhe, Germany) was used. 50 ng total RNA were used per reaction, each RNA sample was analyzed in three replicates. […] Normalized mRNA expression data were then calculated as values relative to the respective untreated sample.

OBL = assay: PARP cleavage in osteoblasts (OBL), mono- and coculture; conditions: mono- and cocultures, high doses of GSI15
Protocol: as §1, with “gradient. The adherent fraction of the isolated mononuclear cells was cultured for 21 days in MEM medium (Sigma-Aldrich Chemie, Taufkirchen, Germany) supplemented with 10% FCS, 100 U/ml penicillin, 100 μg/ml streptomycin, 50 ng/ml M-CSF, and 25 ng/ml RANKL (osteoclastogenic medium), before coculture experiments and treatment with the inventive compounds started.” for “gradient.”
Whole cell extracts were prepared and quantified as described in Jundt F, Anagnostopoulos I, Forster R, Mathas S, Stein H, Dorken B. Activated Notch1 signaling promotes tumor cell proliferation and survival in Hodgkin and anaplastic large cell lymphoma. […]

CC(C)c1ccc(S(=O)(=O)Nc2cccnc2Oc2ccc(Cl)cc2)cc1 [Example 1, N-(2-(4-chlorophenoxy)pyridin-3-yl)-4-isopropylbenzenesulfonamide]
overall amount of apoptotic cells [1]: 83% | Hes-1 mRNA expression (Hes-1): diminished Hes-1 mRNA expression | PARP cleavage (apoptosis) (OBL): Neither in OBL nor in MSC apoptosis was induced
